{
  "source": "patent US11384033B2",
  "about": "“Compositions with improved urease-inhibiting effect comprising (thio)phosphoric acid triamide and further compounds such as amines and colorants” (BASF SE, priority 2014, dated 2022)",
  "origin": "cited, not measured here",
  "conditions": "de-ionized water at 25° C. and atmospheric pressure",
  "data": [
    {"smiles": "CC(O)CO", "note": "(stereo not shown) [propane-1,2-diol]", "values": [
      {"measurement": "pKa value", "result": 14.9}
    ]}
  ]
}
